Measurements as given in patent publication US10988478B1, “Pyrazolo[1,5a]pyrimidine derivatives as IRAK4 modulators” (Genentech, Inc., priority 2015, dated 2021).

Each compound was assayed against human IRAK4 (Homo sapiens (Human), UniProt Q9NWZ3) (assay: IRAK4 kinase inhibition, Transcreener fluorescence polarization ADP assay). Conditions: recombinant full-length His6-IRAK4; 125 uM ATP; 90 min; Ki computed using ATP Km 642 uM.
Format: biochemical
Experimental: Compounds were assayed for inhibition of human IRAK4 and IRAK1 catalytic activity using recombinant enzyme produced from insect cells. Full-length IRAK4 protein, carrying an N-terminal His6-Tag, was obtained from Life Technologies (Carlsbad, Calif., USA). The IRAK1 construct was produced internally and was comprised of IRAK1 residues Arg194 to Ser712, preceded by an NH2-terminal His6 tag and the coding sequence for glutathione-S-transferase.

Sequence of human IRAK4 (Q9NWZ3 whole entry): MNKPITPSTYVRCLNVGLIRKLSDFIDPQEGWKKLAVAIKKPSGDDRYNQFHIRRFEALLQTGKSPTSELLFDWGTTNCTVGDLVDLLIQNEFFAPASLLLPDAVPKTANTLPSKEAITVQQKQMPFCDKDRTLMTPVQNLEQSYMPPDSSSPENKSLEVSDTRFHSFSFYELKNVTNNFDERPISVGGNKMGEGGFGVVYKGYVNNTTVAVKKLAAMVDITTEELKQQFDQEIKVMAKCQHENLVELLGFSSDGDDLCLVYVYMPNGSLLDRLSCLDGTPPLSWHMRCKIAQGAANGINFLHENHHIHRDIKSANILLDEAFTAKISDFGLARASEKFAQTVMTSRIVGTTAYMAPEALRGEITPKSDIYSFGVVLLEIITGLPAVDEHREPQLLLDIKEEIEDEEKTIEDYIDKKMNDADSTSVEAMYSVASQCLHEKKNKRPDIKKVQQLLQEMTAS

| Compound | Ki |
| --- | --- |
| CC1(C)Cc2cc(NC(=O)c3cnn4cccnc34)c(OCC3CCNCC3)cc2O1 [Example 309, N-(2,2-Dimethyl-6-(piperidin-4-ylmethoxy)-2,3-dihydrobenzofuran-5-yl)pyrazolo[1,5-α]pyrimidine-3-carboxamide] | 15 nM |
| C[C@@]1(CO)Cc2cc(NC(=O)c3cnn4cccnc34)c(OCC(F)F)cc2O1 [Example 310, (S)-N-(6-(2,2-difluoroethoxy)-2-(hydroxymethyl)-2-methyl-2,3-dihydrobenzofuran-5-yl)pyrazolo[1,5-a]pyrimidine-3-carboxamide] | 23 nM |
| C[C@]1(CO)Cc2cc(NC(=O)c3cnn4cccnc34)c(OCC(F)F)cc2O1 [Example 311, (R)-N-(6-(2,2-difluoroethoxy)-2-(hydroxymethyl)-2-methyl-2,3-dihydrobenzofuran-5-yl)pyrazolo[1,5-a]pyrimidine-3-carboxamide] | 10 nM |
| CC(C)(O)[C@]1(C)Cc2cc(NC(=O)c3cnn4cccnc34)c(O[C@H]3CC[C@@H](O)CC3)cc2O1 [Example 312, N-[(2S)-6-(cis-4-Hydroxycyclo-hexoxy)-2-(1-hydroxy-1-methyl-ethyl)-2-methyl-3H-benzofuran-5-yl]pyrazolo[1,5-a]pyrimidine-3-carboxamide] | 73 nM |
| CC(C)(O)[C@@]1(C)Cc2cc(NC(=O)c3cnn4cccnc34)c(O[C@H]3CC[C@@H](O)CC3)cc2O1 [Example 313, N-[(2R)-6-(cis-4-Hydroxycyclo-hexoxy)-2-(1-hydroxy-1-methyl-ethyl)-2-methyl-3H-benzofuran-5-yl]pyrazolo[1,5-a]pyrimidine-3-carboxamide] | 490 nM |
| CC(C)(O)[C@]1(C)Cc2cc(NC(=O)c3cnn4cccnc34)c(O[C@H]3CC[C@H](O)CC3)cc2O1 [Example 314, N-[(2S)-6-(trans-4-Hydroxycyclo-hexoxy)-2-(1-hydroxy-1-methyl-ethyl)-2-methyl-3H-benzofuran-5-yl]pyrazolo[1,5-a]pyrimidine-3-carboxamide] | 65 nM |
| CC(C)(O)[C@@]1(C)Cc2cc(NC(=O)c3cnn4cccnc34)c(O[C@H]3CC[C@H](O)CC3)cc2O1 [Example 315, N-[(2R)-6-(trans-4-Hydroxycyclo-hexoxy)-2-(1-hydroxy-1-methyl-ethyl)-2-methyl-3H-benzofuran-5-yl]pyrazolo[1,5-a]pyrimidine-3-carboxamide] | 520 nM |
| O=C(Nc1cc2c(cc1N1CCC(CO)CC1)O[C@](CO)(C(F)(F)F)C2)c1cnn2cccnc12 [Example 316, (R)-N-(2-(hydroxymethyl)-6-(4-(hydroxymethyl)piperidin-1-yl)-2-(trifluoromethyl)-2,3-dihydrobenzofuran-5-yl)pyrazolo[1,5-a]pyrimidine-3-carboxamide] | 5.2 nM |
| C[C@@]1(CO)Cc2cc(NC(=O)c3cnn4cccnc34)c(N3CCC4(CC3)CNC4=O)cc2O1 [Example 321, (S)-N-(2-(hydroxymethyl)-2-methyl-6-(1-oxo-2,7-diazaspiro[3.5]nonan-7-yl)-2,3-dihydrobenzofuran-5-yl)pyrazolo[1,5-a]pyrimidine-3-carboxamide] | 11 nM |
| CC1(CO)Cc2cc(NC(=O)c3cnn4cccnc34)c(N3CC4C(CO)C4C3)cc2O1 (stereo not shown) [Example 322, N-(2-(hydroxymethyl)-6-(6-(hydroxymethyl)-3-azabicyclo[3.1.0]hexan-3-yl)-2-methyl-2,3-dihydrobenzofuran-5-yl)pyrazolo[1,5-a]pyrimidine-3-carboxamide] | 35 nM |
| CC(C)(O)C1CCN(c2cc3c(cc2NC(=O)c2cnn4cccnc24)C[C@](C)(CO)O3)CC1 [Example 324, N-[(2R)-2-(Hydroxymethyl)-6-[4-(1-hydroxy-1-methyl-ethyl)-1-piperidyl]-2-methyl-3H-benzofuran-5-yl]pyrazolo[1,5-α]pyrimidine-3-carboxamide] | 4.8 nM |
| Cc1cnc2c(C(=O)Nc3cc4c(cc3N3CCN(CC(F)F)CC3)OC(C)(CO)C4)cnn2c1 (stereo not shown) [Example 325, N-(6-(4-(2,2-Difluoroethyl)piperazin-1-yl)-2-(hydroxymethyl)-2-methyl-2,3-dihydrobenzofuran-5-yl)-6-methylpyrazolo[1,5-a]pyrimidine-3-carboxamide] | 6 nM |
| C[C@@]1(O)CCCN(c2cc3c(cc2NC(=O)c2cnn4cccnc24)C[C@](C)(CO)O3)CC1 [Example 329, N-((R)-6-((R)-4-hydroxy-4-methylazepan-1-yl)-2-(hydroxymethyl)-2-methyl-2,3-dihydrobenzofuran-5-yl)pyrazolo[1,5-a]pyrimidine-3-carboxamide] | 6 nM |
| C[C@]1(O)CCCN(c2cc3c(cc2NC(=O)c2cnn4cccnc24)C[C@](C)(CO)O3)CC1 [Example 330, N-((R)-6-((S)-4-hydroxy-4-methylazepan-1-yl)-2-(hydroxymethyl)-2-methyl-2,3-dihydrobenzofuran-5-yl)pyrazolo[1,5-a]pyrimidine-3-carboxamide] | 6 nM |
| C[C@]1(O)CCCN(c2cc3c(cc2NC(=O)c2cnn4cccnc24)C[C@@](C)(CO)O3)CC1 [Example 332, N-((S)-6-((S)-4-hydroxy-4-methylazepan-1-yl)-2-(hydroxymethyl)-2-methyl-2,3-dihydrobenzofuran-5-yl)pyrazolo[1,5-a]pyrimidine-3-carboxamide] | 6 nM |
| CCC(=O)C1CCN(c2cc3c(cc2NC(=O)c2cnn4cccnc24)CC(C)(CO)O3)CC1 (stereo not shown) [Example 343, N-[2-(Hydroxymethyl)-2-methyl-6-(4-propanoyl-1-piperidyl)-3H-benzofuran-5-yl]pyrazolo[1,5-a]pyrimidine-3-carboxamide] | 5 nM |
| C[C@]1(CO)Cc2cc(NC(=O)c3cnn4cccnc34)c(N3C[C@@H]4[C@H](C3)[C@@H]4C(N)=O)cc2O1 [Example 348, N-((R)-6-((1R,5S,6S)-6-carbamoyl-3-azabicyclo[3.1.0]hexan-3-yl)-2-(hydroxymethyl)-2-methyl-2,3-dihydrobenzofuran-5-yl)pyrazolo[1,5-a]pyrimidine-3-carboxamide] | 890 nM |
| C[C@@]1(CO)Cc2cc(NC(=O)c3cnn4cccnc34)c(N3C[C@@H]4[C@H](C3)[C@@H]4C(N)=O)cc2O1 [Example 349, N-((S)-6-((1R,5S,6R)-6-carbamoyl-3-azabicyclo[3.1.0]hexan-3-yl)-2-(hydroxymethyl)-2-methyl-2,3-dihydrobenzofuran-5-yl)pyrazolo[1,5-a]pyrimidine-3-carboxamide] | 1100 nM |

The next compounds have a lower Ki than those just listed; values first:

| Ki | Compound |
| --- | --- |
| 2.4 nM | O=C(Nc1cc2c(cc1N1CCC(CO)CC1)O[C@@](CO)(C(F)(F)F)C2)c1cnn2cccnc12 [Example 317, (S)-N-(2-(hydroxymethyl)-6-(4-(hydroxymethyl)piperidin-1-yl)-2-(trifluoromethyl)-2,3-dihydrobenzofuran-5-yl)pyrazolo[1,5-a]pyrimidine-3-carboxamide] |
| 3.1 nM | O=C(Nc1cc2c(cc1N1CCC(F)(CO)CC1)O[C@@](CO)(C(F)(F)F)C2)c1cnn2cccnc12 [Example 319, (S)-N-(6-(4-fluoro-4-(hydroxymethyl)piperidin-1-yl)-2-(hydroxymethyl)-2-(trifluoromethyl)-2,3-dihydrobenzofuran-5-yl)pyrazolo[1,5-a]pyrimidine-3-carboxamide] |
| 4.6 nM | C[C@]1(CO)Cc2cc(NC(=O)c3cnn4cccnc34)c(N3CCC4(CC3)CNC4=O)cc2O1 [Example 320, (R)-N-(2-(hydroxymethyl)-2-methyl-6-(1-oxo-2,7-diazaspiro[3.5]nonan-7-yl)-2,3-dihydrobenzofuran-5-yl)pyrazolo[1,5-a]pyrimidine-3-carboxamide] |
| 4.2 nM | CC(C)(O)C1CCN(c2cc3c(cc2NC(=O)c2cnn4cccnc24)C[C@@](C)(CO)O3)CC1 [Example 323, N-[(2S)-2-(Hydroxymethyl)-6-[4-(1-hydroxy-1-methyl-ethyl)-1-piperidyl]-2-methyl-3H-benzofuran-5-yl]pyrazolo[1,5-α]pyrimidine-3-carboxamide] |
| 2.7 nM | Cc1cnc2c(C(=O)Nc3cc4c(cc3N3CCC(F)(CO)CC3)OC(C)(CO)C4)cnn2c1 (stereo not drawn) [Example 328, N-(6-(4-Fluoro-4-(hydroxymethyl)-piperidin-1-yl)-2-(hydroxymethyl)-2-methyl-2,3-dihydrobenzofuran-5-yl)-6-methylpyrazolo[1,5-α]pyrimidine-3-carboxamide] |
| 2 nM | C[C@]1(CO)Cc2cc(NC(=O)c3cnn4cccnc34)c(N3CCC(C#N)CC3)cc2O1 [Example 335, (R)-N-(6-(4-cyanopiperidin-1-yl)-2-(hydroxymethyl)-2-methyl-2,3-dihydrobenzofuran-5-yl)pyrazolo[1,5-a]pyrimidine-3-carboxamide] |
| 3 nM | C[C@@]1(CO)Cc2cc(NC(=O)c3cnn4cccnc34)c(N3CCC(C#N)CC3)cc2O1 [Example 336, (S)-N-(6-(4-cyanopiperidin-1-yl)-2-(hydroxymethyl)-2-methyl-2,3-dihydrobenzofuran-5-yl)pyrazolo[1,5-a]pyrimidine-3-carboxamide] |
| 4 nM | C[C@]1(CO)Cc2cc(NC(=O)c3cnn4cccnc34)c(N3CCC(C4(O)CC4)CC3)cc2O1 [Example 341, N-[(2R)-6-[4-(1-hydroxycyclopropyl)-1-piperidyl]-2-(hydroxymethyl)-2-methyl-3H-benzofuran-5-yl]pyrazolo[1,5-a]pyrimidine-3-carboxamide] |
| 3.9 nM | C[C@@]1(CO)Cc2cc(NC(=O)c3cnn4cccnc34)c(N3CCC(C4(O)CC4)CC3)cc2O1 [Example 342, N-[(2S)-6-[4-(1-hydroxycyclopropyl)-1-piperidyl]-2-(hydroxymethyl)-2-methyl-3H-benzofuran-5-yl]pyrazolo[1,5-a]pyrimidine-3-carboxamide] |
| 2 nM | CC1(CO)Cc2cc(NC(=O)c3cnn4cccnc34)c(N3CCC(C(O)C(F)F)CC3)cc2O1 (stereo not shown) [Example 352, N-(6-(4-(2,2-Difluoro-1-hydroxyethyl)piperidin-1-yl)-2-(hydroxymethyl)-2-methyl-2,3-dihydrobenzofuran-5-yl)pyrazolo[1,5-a]pyrimidine-3-carboxamide] |
